# Laboratory results taken from patent US5612329A (priority 1995, dated 1997).
# What was measured:
# cells = details: suggested by the biological activity profile; cited from earlier work
# DNA = details: compared with chlorambucil per se; cited from earlier work
# [1] = relative to level predicted from in vitro studies; cited from earlier work
# [2] = tested on: prostatic carcinoma cells; details: cited from earlier work
# polyamine transporter = details: vs longer polyamines such as spermine and spermidine; cited from earlier work
# cancer cell lines = details: cited from earlier work
# SR cells = assay: In vitro cytotoxicity / cell growth inhibition, leukemia; assay type: cell-based; details: Homo sapiens, 48 hr, read-out: log10 G150 (converted)
# Description: (§1) The anti-proliferative activities of the aziridinylpolyamines obtained in Synthesis Examples 1-4 were assessed by determining log10 G150 values against human cancer cell lines using the screening strategy described by Boyd et al, Drug Devel. Res. 34:91-109 (1995).
# (§2) More specifically, the compounds were tested at a minimum of five concentrations at 10-fold dilutions using a 48 hr continuous exposure protocol. Each cell line shown in Table 1 below was inoculated onto microtiter plates. After a pre-incubation period of 24-48 hr at 37° C., the test compounds were added, and the culture was incubated for an additional 48 hr at 37° C. Cell viability or cell growth end-point determinations were performed by fixation of the cells, followed by staining with sulforhodamine B (Monks et al, J. Natl. Cancer Inst., 83:757-766 (1991)).
# MOLT-4 cells = assay: as above; assay type: cell-based; details: Homo sapiens; MOLT-4, leukemia, 48 hr; read-out: log10 G150 (converted)
# Description: as §1, §2
# K-562 cells = assay: as above; assay type: cell-based; details: Homo sapiens, K562; K-562, leukemia, 48 hr; read-out: log10 G150 (converted)
# Description: as §1, §2
# RPMI-8226 cells = assay: as above; assay type: cell-based; details: Homo sapiens; RPMI-8226, leukemia, 48 hr; read-out: log10 G150 (converted)
# Description: as §1, §2
# CCRF-CEN cells = assay: as above; assay type: cell-based; details: Homo sapiens, 48 hr, read-out: log10 G150 (converted)
# Description: as §1, §2
# NCl-H226 cells = assay: In vitro cytotoxicity / cell growth inhibition, non-small cell lung cancer; assay type: cell-based; details: Homo sapiens, 48 hr, read-out: log10 G150 (converted)
# Description: as §1, §2
# EKVX cells = assay: as above; assay type: cell-based; details: Homo sapiens, 48 hr, read-out: log10 G150 (converted)
# Description: as §1, §2
# HOP-62 cells = assay: as above; assay type: cell-based; details: Homo sapiens; HOP-62, non-small cell lung cancer, 48 hr; read-out: log10 G150 (converted)
# Description: as §1, §2
# NCl-H522 cells = assay: as above; assay type: cell-based; details: Homo sapiens, 48 hr, read-out: log10 G150 (converted)
# Description: as §1, §2
# HOP-92 cells = assay: as above; assay type: cell-based; details: Homo sapiens; HOP-92, non-small cell lung cancer, 48 hr; read-out: log10 G150 (converted)
# Description: as §1, §2
# NCl-H23 cells = assay: as above; assay type: cell-based; details: Homo sapiens, 48 hr, read-out: log10 G150 (converted)
# Description: as §1, §2
# A549/ATCC cells = assay: as above; assay type: cell-based; details: Homo sapiens, 48 hr, read-out: log10 G150 (converted)
# Description: as §1, §2
# NCl-H322M cells = assay: as above; assay type: cell-based; details: Homo sapiens, 48 hr, read-out: log10 G150 (converted)
# Description: as §1, §2
# NCl-H460 cells = assay: as above; assay type: cell-based; details: Homo sapiens, 48 hr, read-out: log10 G150 (converted)
# Description: as §1, §2
# SN12C cells = assay: In vitro cytotoxicity / cell growth inhibition, renal cancer; assay type: cell-based; details: Homo sapiens, 48 hr, read-out: log10 G150 (converted)
# Description: as §1, §2
# ACHN cells = assay: as above; assay type: cell-based; details: Homo sapiens, 48 hr, read-out: log10 G150 (converted)
# Description: as §1, §2
# TK-10 cells = assay: as above; assay type: cell-based; details: Homo sapiens; TK-10, renal cancer, 48 hr; read-out: log10 G150 (converted)
# Description: as §1, §2
# RXF-393 cells = assay: as above; assay type: cell-based; details: Homo sapiens; RXF-393, renal cancer, 48 hr; read-out: log10 G150 (converted)
# Description: as §1, §2
# UO-31 cells = assay: as above; assay type: cell-based; details: Homo sapiens; UO-31, renal cancer, 48 hr; read-out: log10 G150 (converted)
# Description: as §1, §2
# 786-0 cells = assay: as above; assay type: cell-based; details: Homo sapiens; 786-0, renal cancer, 48 hr; read-out: log10 G150 (converted)
# Description: as §1, §2
# CAKI-1 cells = assay: as above; assay type: cell-based; details: Homo sapiens; CAKI-1, renal cancer, 48 hr; read-out: log10 G150 (converted)
# Description: as §1, §2
# A498 cells = assay: as above; assay type: cell-based; details: Homo sapiens, 48 hr, read-out: log10 G150 (converted)
# Description: as §1, §2
# COLO 205 cells = assay: In vitro cytotoxicity / cell growth inhibition, colon cancer; assay type: cell-based; details: Homo sapiens; COLO 205, colon cancer, 48 hr; read-out: log10 G150 (converted)
# Description: as §1, §2
# HCC-2998 cells = assay: as above; assay type: cell-based; details: Homo sapiens; HCC-2998, colon cancer, 48 hr; read-out: log10 G150 (converted)
# Description: as §1, §2
# KM12 cells = assay: as above; assay type: cell-based; details: Homo sapiens, 48 hr, read-out: log10 G150 (converted)
# Description: as §1, §2
# HCT-116 cells = assay: as above; assay type: cell-based; details: Homo sapiens; HCT-116, colon cancer, 48 hr; read-out: log10 G150 (converted)
# Description: as §1, §2
# HCT-15 cells = assay: as above; assay type: cell-based; details: Homo sapiens; HCT-15, colon cancer, 48 hr; read-out: log10 G150 (converted)
# Description: as §1, §2
# HT29 cells = assay: as above; assay type: cell-based; details: Homo sapiens, HT-29, 48 hr, read-out: log10 G150 (converted)
# Description: as §1, §2
# SW-620 cells = assay: as above; assay type: cell-based; details: Homo sapiens; SW-620, colon cancer, 48 hr; read-out: log10 G150 (converted)
# Description: as §1, §2
# SF-268 cells = assay: In vitro cytotoxicity / cell growth inhibition, CNS cancer; assay type: cell-based; details: Homo sapiens; SF-268, CNS cancer, 48 hr; read-out: log10 G150 (converted)
# Description: as §1, §2
# SF-295 cells = assay: as above; assay type: cell-based; details: Homo sapiens; SF-295, CNS cancer, 48 hr; read-out: log10 G150 (converted)
# Description: as §1, §2
# U251 cells = assay: as above; assay type: cell-based; details: Homo sapiens, U-251, 48 hr, read-out: log10 G150 (converted)
# Description: as §1, §2
# SF-539 cells = assay: as above; assay type: cell-based; details: Homo sapiens; SF-539, CNS cancer, 48 hr; read-out: log10 G150 (converted)
# Description: as §1, §2
# SNB-75 cells = assay: as above; assay type: cell-based; details: Homo sapiens; SNB-75, CNS cancer, 48 hr; read-out: log10 G150 (converted)
# Description: as §1, §2
# SNB-19 cells = assay: as above; assay type: cell-based; details: Homo sapiens; SNB-19, CNS cancer, 48 hr; read-out: log10 G150 (converted)
# Description: as §1, §2
# HL-60 (TB) cells = assay: cells; assay type: cell-based; details: Homo sapiens, leukemia, 48 hr, read-out: log10 G150 (converted)
SMILES,GI50 (SR cells),GI50 (MOLT-4 cells),GI50 (K-562 cells),GI50 (RPMI-8226 cells),GI50 (CCRF-CEN cells),GI50 (NCl-H226 cells),GI50 (EKVX cells),GI50 (HOP-62 cells),GI50 (NCl-H522 cells),GI50 (HOP-92 cells),GI50 (NCl-H23 cells),GI50 (A549/ATCC cells),GI50 (NCl-H322M cells),GI50 (NCl-H460 cells),GI50 (SN12C cells),GI50 (ACHN cells),GI50 (TK-10 cells),GI50 (RXF-393 cells),GI50 (UO-31 cells),GI50 (786-0 cells),also measured
NCCCCN(CCCN)CCCNC(=O)CCCc1ccc(N(CCCl)CCCl)cc1 [chlorambucil-spermidine conjugate],–,–,–,–,–,–,–,–,–,–,–,–,–,–,–,–,–,–,–,–,uptake by cells (cells): not taken up well by cells; production of DNA cross-links (DNA): highly efficient at producing DNA cross-links compared with chlorambucil per se; in vivo potency [1]: in vivo potency does not reach the level predicted from in vitro studies
NCCCCN1CC1 [N-(4-aminobutyl)aziridine],–,–,–,–,–,–,–,–,–,–,–,–,–,–,–,–,–,–,–,–,cytotoxicity against prostatic carcinoma cells [2]: cytotoxic against prostatic carcinoma cells; effectiveness as substrate for the polyamine transporter (polyamine transporter): less effective as a substrate for the polyamine transporter than the longer polyamines
"NCCCCNCCCN1CC1 [N-(3-aziridinylpropyl)-1,4-diaminobutane]",–,–,–,–,–,–,–,–,–,–,–,–,–,–,–,–,–,–,–,–,cytotoxicity against a variety of cancer cell lines (cancer cell lines): cytotoxic against a variety of cancer cell lines in submicromolar concentrations
"CC(CCNCCCCNCCC(C)N1CC1)N1CC1 (stereo not shown) [Synthesis Example 3, 2,13-Diaziridinyl-5,10-diazatetradecane]",3.63 µM,3.24 µM,21.4 µM,27.5 µM,4.79 µM,23.4 µM,30.9 µM,30.9 µM,12.6 µM,19.1 µM,13.2 µM,29.5 µM,63.1 µM,6.17 µM,9.55 µM,5.75 µM,> 100 µM,15.1 µM,35.5 µM,3.8 µM,GI50 (CAKI-1 cells): 5.01 µM; GI50 (A498 cells): 69.2 µM; GI50 (COLO 205 cells): 14.8 µM; GI50 (HCC-2998 cells): 55 µM; GI50 (KM12 cells): 81.3 µM; GI50 (HCT-116 cells): 26.3 µM; GI50 (HCT-15 cells): 41.7 µM; GI50 (HT29 cells): 20 µM; GI50 (SW-620 cells): 22.4 µM; GI50 (SF-268 cells): 14.5 µM; GI50 (SF-295 cells): 24 µM; GI50 (U251 cells): 15.8 µM; GI50 (SF-539 cells): 6.31 µM; GI50 (SNB-75 cells): 3.39 µM; GI50 (SNB-19 cells): 26.3 µM; GI50 (HL-60 (TB) cells): 3.31 µM
"C(CNCCCN1CC1)CNCCCN1CC1 [Synthesis Example 2, 1,11-Diaziridinyl-4,8-diazaundecane]",3.09 µM,3.09 µM,19.5 µM,22.4 µM,3.72 µM,18.6 µM,25.1 µM,6.31 µM,11.2 µM,11.2 µM,10.7 µM,13.2 µM,36.3 µM,2.95 µM,6.76 µM,3.89 µM,14.5 µM,3.89 µM,17 µM,3.39 µM,GI50 (CAKI-1 cells): 4.07 µM; GI50 (A498 cells): 28.2 µM; GI50 (COLO 205 cells): 13.2 µM; GI50 (HCC-2998 cells): 20.4 µM; GI50 (KM12 cells): 19.5 µM; GI50 (HCT-116 cells): 19.5 µM; GI50 (HCT-15 cells): 21.9 µM; GI50 (HT29 cells): 18.6 µM; GI50 (SW-620 cells): 26.3 µM; GI50 (SF-268 cells): 10.7 µM; GI50 (SF-295 cells): 14.5 µM; GI50 (U251 cells): 6.92 µM; GI50 (SF-539 cells): 11.2 µM; GI50 (SNB-75 cells): 3.98 µM; GI50 (SNB-19 cells): 18.2 µM; GI50 (HL-60 (TB) cells): 2.69 µM
"NCCCNCCCCN1CC1 [N-(4-aziridinylbutyl)-1,3-diaminopropane]",–,–,–,–,–,–,–,–,–,–,–,–,–,–,–,–,–,–,–,–,cytotoxicity against a variety of cancer cell lines (cancer cell lines): cytotoxic against a variety of cancer cell lines in submicromolar concentrations
"CC1CN1CCCNCCCCNCCCN1CC1C (stereo not shown) [Synthesis Example 4, 1,12-Di-(2-methyl-1-aziridinyl)-4,9-diazadodecane]",4.9 µM,2.95 µM,29.5 µM,31.6 µM,3.98 µM,19.1 µM,32.4 µM,10.7 µM,7.24 µM,14.5 µM,8.71 µM,18.2 µM,91.2 µM,9.12 µM,9.77 µM,19.1 µM,11.7 µM,11 µM,17.4 µM,4.47 µM,GI50 (CAKI-1 cells): 3.47 µM; GI50 (A498 cells): > 100 µM; GI50 (COLO 205 cells): 10 µM; GI50 (HCC-2998 cells): 19.1 µM; GI50 (KM12 cells): 64.6 µM; GI50 (HCT-116 cells): 20.9 µM; GI50 (HCT-15 cells): > 100 µM; GI50 (HT29 cells): 20.4 µM; GI50 (SW-620 cells): 41.7 µM; GI50 (SF-268 cells): 20.4 µM; GI50 (SF-295 cells): 47.9 µM; GI50 (U251 cells): 13.2 µM; GI50 (SF-539 cells): 12.9 µM; GI50 (SNB-75 cells): 2.34 µM; GI50 (SNB-19 cells): 25.7 µM; GI50 (HL-60 (TB) cells): 2.95 µM
